“Also recorded” adds a separate entry of the source. Structures can show the parent of a compound that is named as a salt.
How the values were obtained:
Format in all cases: cell-based
[1] = system: primary porcine lens epithelial cells; assay: αSMA expression in primary cultured porcine lens epithelial cells (pLEC)
Method: (§1) Cell Culture—Human lens epithelial cells (HLE-B3) were grown in DMEM medium with 10% fetal bovine serum (FBS), 2 mM glutamine and 50 unit/ml penicillin streptomycin (ThermoFisher, Waltham, Mass.) at 37° C. in a humidified 5% CO2 incubator. For primary porcine lens epithelial cell culture, pig eyes were collected at a local slaughterhouse within two hours of postmortem time, placed on ice and transported to the lab (about 1 hr) for immediate processing. First, the isolated lens was incubated with 2 ml of 0.25% trypsin at 37° C. for 2 min to remove any attached non-lens cells. Then, after a brief rinse with HBSS, the lens capsule was isolated and rinsed three times with HBSS before incubation with 2 ml of 0.5% trypsin for 5 min. 5 ml of complete DMEM medium was added and tissue was disrupted by pipetting up and down 10-15 times with a pipette fitted with a 1000 μl tip. The tissue homogenate was then passed through a 100 μm cell strainer. The cells were collected by low speed centrifugation at 150×g and placed in a 35 mm laminin-coated tissue culture dish with DMEM medium supplied with 10% FBS, 2 mM glutamine and 50 unit/ml penicillin streptomycin (ThernoFisher). The cells were cultured at 37° C. in a humidified incubator with 5% CO2.
Cells were placed 24 hr before the treatment and fresh medium was replaced immediately before the treatment. The indicated concentrations of BSO, DMF, NAC, GSH-EE or TGFβ2 were added to fresh medium and incubated at various time intervals as indicated. After treatment time, the cells were harvested after three washes with ice-cold PBS and subjected to immunoblot or other assays as described below. […]
The cells, whole lens, lens capsule, and lens fibers were collected and lysed in lysis buffer containing 20 mM Tris pH 7.5, 1 mM EDTA, 1 mM EGTA, 150 mM NaCl, 1% Triton X-100, 2.5 mM sodium pyrophosphate, 1 mM bα-Glycerolphosphate, 1 mM Na3VO4, 1 mg/ml Leupeptin, 1 mM PMSF on ice for 10 min. The protein concentration from the supernatant was determined by protein BCA assay (ThermoFisher). […]

HLE-B3 cells = assay: EMT marker / Wnt-β-catenin immunoblot in human lens epithelial cell line HLE-B3; conditions: for type I collagen expression / vimentin expression: 24 h challenge, 25 μM DMF or both
Method: as §1
(§2) Cells were placed 24 hr before the treatment and fresh medium was replaced immediately before the treatment. The indicated concentrations of BSO, DMF, NAC, GSH-EE or TGFβ2 were added to fresh medium and incubated at various time intervals as indicated. After treatment time, the cells were harvested after three washes with ice-cold PBS and subjected to immunoblot or other assays as described below. For whole lens culture, the serum-free medium with or without BSO, NAC, GSH-EE or TGFβ2 was incubated immediately after isolation for 48 hr and the whole lens or lens capsule was collected for further analysis. For lens explant culture, 48 hr after explant culture, various stimulates were used in fresh serum-free medium for an additional 48 hr, and the explant was fixed with 10% formaldehyde for 10 min before immunofluorescence stain, as described below.
The cells, whole lens, lens capsule, and lens fibers were collected and lysed in lysis buffer containing 20 mM Tris pH 7.5, 1 mM EDTA, 1 mM EGTA, 150 mM NaCl, 1% Triton X-100, 2.5 mM sodium pyrophosphate, 1 mM bα-Glycerolphosphate, 1 mM Na3VO4, 1 mg/ml Leupeptin, 1 mM PMSF on ice for 10 min. The protein concentration from the supernatant was determined by protein BCA assay (ThermoFisher). The protein extract was further processed for immunoblot analysis and probed for αSMA, collagen I, vimentin, phosphorylated Smad2, phosphorylated Smad3, phosphorylated GSK-3β and (β-catenin. All data were normalized to the level of GAPDH.

[2] = system: mouse lens ex vivo culture; assay: Mouse whole lens ex vivo culture, lens capsule immunoblot
Method: The isolated intact lens was rinsed three times with HBSS and then cultured in 12-well-plates with serum-free Medium 199 (ThermoFisher) with 50 unit/ml penicillin streptomycin at 37° C. in 5% CO2 incubator, as described above. The lens explant was cultured following the same procedure as described by a previous report. […] et al., Exp Eye Res 71, 591-597 (2000). In brief, the mouse lens was placed in an anterior-toposterior orientation with the anterior attached to the culture dish. The lens posterior capsule was torn/cut by the tip of extra-fine forceps and then peeled towards anterior capsule and pinned on the plastic culture dish. The lens fiber mass was removed thereafter. The explant was cultured in serum-free MEM medium supplied with 50 unit/ml penicillin streptomycin at 37° C. in 5% CO2 incubator as described above. Only healthy growing explants were used for the described study and any unhealthy looking explants, such as folded explants or those with cell detachment, were discarded. Cells were placed 24 hr before the treatment and fresh medium was replaced immediately before the treatment. The indicated concentrations of BSO, DMF, NAC, GSH-EE or TGFβ2 were added to fresh medium and incubated at various time intervals as indicated. After treatment time, the cells were harvested after three washes with ice-cold PBS and subjected to immunoblot or other assays as described below. For whole lens culture, the serum-free medium with or without BSO, NAC, GSH-EE or TGFβ2 was incubated immediately after isolation for 48 hr and the whole lens or lens capsule was collected for further analysis. For lens explant culture, 48 hr after explant culture, various stimulates were used in fresh serum-free medium for an additional 48 hr, and the explant was fixed with 10% formaldehyde for 10 min before immunofluorescence stain, as described below. The cells, whole lens, lens capsule, and lens fibers were collected and lysed in lysis buffer containing 20 mM Tris pH 7.5, 1 mM EDTA, 1 mM EGTA, 150 mM NaCl, 1% Triton X-100, 2.5 mM sodium pyrophosphate, 1 mM bα-Glycerolphosphate, 1 mM Na3VO4, 1 mg/ml Leupeptin, 1 mM PMSF on ice for 10 min. The protein concentration from the supernatant was determined by protein BCA assay (ThermoFisher). The protein extract was further processed for immunoblot analysis and probed for αSMA, collagen I, vimentin, phosphorylated Smad2, phosphorylated Smad3, phosphorylated GSK-3β and (β-catenin. All data were normalized to the level of GAPDH.

lens explant = assay: Mouse lens explant culture (ex vivo PCO mimetic model), αSMA immunofluorescence; conditions: 1 ng/ml TGFβ2, 48 hr stimulation
Method: The isolated intact lens was rinsed three times with HBSS and then cultured in 12-well-plates with serum-free Medium 199 (ThermoFisher) with 50 unit/ml penicillin streptomycin at 37° C. in 5% CO2 incubator, as described above. The lens explant was cultured following the same procedure as described by a previous report. Tamiya et al., Exp Eye Res 71, 591-597 (2000). In brief, the mouse lens was placed in an anterior-toposterior orientation with the anterior attached to the culture dish. The lens posterior capsule was torn/cut by the tip of extra-fine forceps and then peeled towards anterior capsule and pinned on the plastic culture dish. The lens fiber mass was removed thereafter. The explant was cultured in serum-free MEM medium supplied with 50 unit/ml penicillin streptomycin at 37° C. in 5% CO2 incubator as described above. Only healthy growing explants were used for the described study and any unhealthy looking explants, such as folded explants or those with cell detachment, were discarded.
as §2, with “For lens explant culture, 48 hr after explant culture, various stimulates were used in fresh serum-free medium for an additional 48 hr, and the explant was fixed with 10% formaldehyde for 10 min before immunofluorescence stain, as described below.” left out
Confocal microscope—All confocal images were collected by a Leica SP8 gSTED confocal microscope equipped with two 3 Hyd SP GaAsP detectors and the AOBS system lasers include a 405 nm, Argon (458, 476, 488, 496, 514 nm), a tunable white light (470 to 670 nm), and a 592 nm STED depletion laser. For proper comparison, each channel of fluorescence was adjusted to the highest sensitivity/intensity but without over saturation from samples with the strongest signal. […]

[3] = HLE-B3 cells, 24 hr treatment with increasing concentration of BSO or DMF
[4] = HLE-B3 cells, 24 hr, 500 μM BSO or 25 μM DMF
[5] = mouse lens ex vivo culture, 500 μM BSO, 48 hrs
[6] = HLE-B3 cells, XAV939 co-incubated with 500 μM BSO, 24 hr
[7] = lens capsule after ex vivo lens culture, BSO plus XAV939, 48 hr

CCCCS(=N)(=O)CCC(N)C(=O)O (stereo not shown) [BSO, buthionine sulfoximine]
αSMA expression ([1]; pLECs, increased concentration of BSO, 24 hr): increases | concentration required to stimulate a similar fold of αSMA production ([1]; primary porcine lens epithelial cells, 24 hr, 100 times lower than in HLE-B3): 5 µM | cell death ([1]; primary porcine lens epithelial cells, higher dosages of BSO (>100 μM)): massive cell death and detachment | phosphorylation status of Smad2 and Smad3 (HLE-B3 cells; HLE-B3 cells with or without 500 μM BSO, 24 hr): no remarkable changes | αSMA production, combination with TGFβ2 (HLE-B3 cells; HLE-B3 cells, 500 μM BSO combined with 1 ng/ml TGFβ2, 24 hr): synergistic effect | phosphorylation at serine 9 of GSK-3β (HLE-B3 cells; HLE-B3 cells, 500 μM BSO, 24 hr): significantly elevated; also recorded: significantly increased | type I collagen expression (HLE-B3 cells; HLE-B3 cells, 500 μM BSO): Significantly increased; also recorded: significantly elevated | vimentin expression (HLE-B3 cells; HLE-B3 cells, 500 μM BSO): Significantly increased; also recorded: significantly elevated | αSMA expression (HLE-B3 cells; [3]): increased; also recorded: significantly upregulated | αSMA expression (HLE-B3 cells; [4]): Significantly increased | phosphorylation at serine 9 of GSK-3β ([2]; lens capsules after whole lens ex vivo culture with BSO, 48 hr): significantly increased | increase of vimentin expression compared to medium alone [2, 5]: ~2 fold | increase of αSMA expression compared to medium alone [2, 5]: over 3.5 fold

COC(=O)/C=C/C(=O)OC [DMF, dimethyl fumarate]
type I collagen expression (HLE-B3 cells; HLE-B3 cells, 500 μM BSO): Significantly increased; also recorded: significantly elevated | vimentin expression (HLE-B3 cells; HLE-B3 cells, 500 μM BSO): Significantly increased; also recorded: significantly elevated | αSMA expression (HLE-B3 cells; [3]): increased; also recorded: significantly upregulated | αSMA expression (HLE-B3 cells; [4]): Significantly increased

Oc1nc(-c2ccc(C(F)(F)F)cc2)nc2c1CSCC2 [XAV939]
αSMA production after BSO challenge (HLE-B3 cells; [6]): block | β-catenin production after BSO challenge (HLE-B3 cells; [6]): block | αSMA production after BSO challenge [2, 7]: block | β-catenin production after BSO challenge [2, 7]: block

B1: TGFβ2: Human TGFβ2, profibrogenic cytokine purchased from Sigma-Aldrich (protein, UniProt P61812 303-414, looked up)
Transforming growth factor …: ALDAAYCFRNVQDNCCLRPLYIDFKRDLGWKWIHEPKGYNANFCAGACPYLWSSDTQHSRVLSLYNTINPEASASPCCVSQDLEPLTILYYIGKTPKIEQLSNMIVKSCKCS
αSMA expression in lens explant compared to medium alone (lens explant): activated; also recorded: profound elevation

From patent publication US20200038355A1, “ANTIOXIDANTS FOR USE IN OPHTHALMIC SURGERY” (Case Western Reserve University, priority 2017, published 2020)
